# Source: patent US9556179B2 (BRISTOL-MYERS SQUIBB COMPANY, priority 2012, dated 2017)
# Assays:
# CK1δ = CK1δ (Homo sapiens (Human), UniProt P48730); experiment: CK1δ kinase assay (Caliper LABCHIP electrophoretic separation of fluoresceinated peptide substrate and product); assay type: biochemical; details: 200 pM enzyme, 50 μM ATP, 22 hours at room temperature
# Procedure, shortened: (§1)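 Eleven-concentration compound series in kinase reactions run for 22 hours at room temperature. Terminated with EDTA, with product conversion read by electrophoretic separation. Non-linear regression gave IC50.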
# CK1ε = CK1ε (Homo sapiens (Human), UniProt P49674); experiment: CK1ε kinase assay (Caliper LABCHIP electrophoretic separation of fluoresceinated peptide substrate and product); assay type: biochemical; details: 200 pM enzyme, 50 μM ATP, 22 hours at room temperature
# Procedure, shortened: as §1
# Chain of CK1δ (P48730 whole entry): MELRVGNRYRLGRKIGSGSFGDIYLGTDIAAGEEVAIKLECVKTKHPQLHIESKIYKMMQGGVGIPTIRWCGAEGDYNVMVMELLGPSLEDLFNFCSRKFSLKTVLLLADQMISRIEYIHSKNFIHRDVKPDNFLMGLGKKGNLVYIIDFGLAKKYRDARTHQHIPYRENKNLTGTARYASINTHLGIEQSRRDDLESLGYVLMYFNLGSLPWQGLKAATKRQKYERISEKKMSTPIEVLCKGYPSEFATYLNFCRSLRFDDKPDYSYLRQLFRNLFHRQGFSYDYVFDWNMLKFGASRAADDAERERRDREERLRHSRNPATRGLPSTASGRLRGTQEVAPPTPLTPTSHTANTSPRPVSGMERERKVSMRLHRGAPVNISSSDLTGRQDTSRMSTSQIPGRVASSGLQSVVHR
# Chain of CK1ε (P49674 whole entry): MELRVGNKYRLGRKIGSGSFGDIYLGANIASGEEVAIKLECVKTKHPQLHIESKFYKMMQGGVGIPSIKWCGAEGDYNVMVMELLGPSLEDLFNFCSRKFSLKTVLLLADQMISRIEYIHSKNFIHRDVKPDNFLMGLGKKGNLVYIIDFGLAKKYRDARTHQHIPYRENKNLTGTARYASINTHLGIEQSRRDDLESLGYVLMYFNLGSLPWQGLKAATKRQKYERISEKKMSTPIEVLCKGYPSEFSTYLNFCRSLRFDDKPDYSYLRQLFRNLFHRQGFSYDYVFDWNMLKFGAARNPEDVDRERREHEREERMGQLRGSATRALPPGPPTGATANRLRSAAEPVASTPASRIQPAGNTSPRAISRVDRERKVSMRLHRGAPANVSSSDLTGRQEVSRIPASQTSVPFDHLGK
SMILES,IC50 (CK1δ) [nM],IC50 (CK1ε) [nM]
"Cc1nc(-c2ccc(F)cc2)c(-c2ccc3nc(NC(=O)c4ccnc(F)c4)cn3n2)n1C1CCN(C(=O)c2ccsn2)CC1 [Compound 147, 2-fluoro-N-(6-(4-(4-fluorophenyl)-1-(1-(isothiazole-3-carbonyl)piperidin-4-yl)-2-methyl-1H-imidazol-5-yl)imidazo[1,2-b]pyridazin-2-yl)isonicotinamide]",0.529,4.9
"O=C(Nc1cn2nc(-c3c(-c4ccc(F)cc4)ncn3C3CNC3)ccc2n1)c1ccnc(F)c1 [Compound 148, N-(6-(1-(azetidin-3-yl)-4-(4-fluorophenyl)-1H-imidazol-5-yl)imidazo[1,2-b]pyridazin-2-yl)-2-fluoroisonicotinamide]",0.608,9.87
"CN1CC(n2cnc(-c3ccc(F)cc3)c2-c2ccc3nc(NC(=O)c4ccnc(F)c4)cn3n2)C1 [Compound 149, 2-fluoro-N-(6-(4-(4-fluorophenyl)-1-(1-methylazetidin-3-yl)-1H-imidazol-5-yl)imidazo[1,2-b]pyridazin-2-yl)isonicotinamide]",2.19,2.84
"O=C(Nc1cn2nc(-c3c(-c4ccc(F)cc4)ncn3C3CN(CCO)C3)ccc2n1)c1ccnc(F)c1 [Compound 150, 2-fluoro-N-(6-(4-(4-fluorophenyl)-1-(1-(2-hydroxyethyl)azetidin-3-yl)-1H-imidazol-5-yl)imidazo[1,2-b]pyridazin-2-yl)isonicotinamide]",0.034,3.81
"Cc1nc(-c2cccnc2)sc1C(=O)Nc1cn2nc(-c3c(-c4ccc(F)cc4)ncn3C3CNC3)ccc2n1 [Compound 153, N-(6-(1-(azetidin-3-yl)-4-(4-fluorophenyl)-1H-imidazol-5-yl)imidazo[1,2-b]pyridazin-2-yl)-4-methyl-2-(pyridin-3-yl)thiazole-5-carboxamide]",0.204,5.29
"Cc1nc(-c2cccnc2)sc1C(=O)Nc1cn2nc(-c3c(-c4ccc(F)cc4)ncn3C3CN(C)C3)ccc2n1 [Compound 154, N-(6-(4-(4-fluorophenyl)-1-(1-methylazetidin-3-yl)-1H-imidazol-5-yl)imidazo[1,2-b]pyridazin-2-yl)-4-methyl-2-(pyridin-3-yl)thiazole-5-carboxamide]",0.915,8.64
"Cc1nc(-c2cccnc2)sc1C(=O)Nc1cn2nc(-c3c(-c4ccc(F)cc4)ncn3C3CN(CCO)C3)ccc2n1 [Compound 155, N-(6-(4-(4-fluorophenyl)-1-(1-(2-hydroxyethyl)azetidin-3-yl)-1H-imidazol-5-yl)imidazo[1,2-b]pyridazin-2-yl)-4-methyl-2-(pyridin-3-yl)thiazole-5-carboxamide]",0.451,7.48
"Cc1nc(-c2cccnc2)sc1C(=O)Nc1cn2nc(-c3c(-c4ccc(F)cc4)ncn3C3CN(C(=O)CN)C3)ccc2n1 [Compound 156, N-(6-(1-(1-(2-aminoacetyl)azetidin-3-yl)-4-(4-fluorophenyl)-1H-imidazol-5-yl)imidazo[1,2-b]pyridazin-2-yl)-4-methyl-2-(pyridin-3-yl)thiazole-5-carboxamide]",0.249,0.976
"O=C(Nc1cn2nc(-c3c(-c4ccc(F)cc4)ncn3C3CNC3)ccc2n1)c1ccncc1 [Compound 157, N-(6-(1-(azetidin-3-yl)-4-(4-fluorophenyl)-1H-imidazol-5-yl)imidazo[1,2-b]pyridazin-2-yl)isonicotinamide]",0.587,9.93
"CN1CC(n2cnc(-c3ccc(F)cc3)c2-c2ccc3nc(NC(=O)c4ccncc4)cn3n2)C1 [Compound 158, N-(6-(4-(4-fluorophenyl)-1-(1-methylazetidin-3-yl)-1H-imidazol-5-yl)imidazo[1,2-b]pyridazin-2-yl)isonicotinamide]",0.854,2.73
"O=C(Nc1cn2nc(-c3c(-c4ccc(F)cc4)ncn3C3CN(CCO)C3)ccc2n1)c1ccncc1 [Compound 159, N-(6-(4-(4-fluorophenyl)-1-(1-(2-hydroxyethyl)azetidin-3-yl)-1H-imidazol-5-yl)imidazo[1,2-b]pyridazin-2-yl)isonicotinamide]",1.31,5.6
"O=C(Nc1cn2nc(-c3c(-c4ccc(F)cc4)ncn3CCN3CCOCC3)ccc2n1)c1ccncc1 [Compound 160, N-(6-(4-(4-fluorophenyl)-1-(2-morpholinoethyl)-1H-imidazol-5-yl)imidazo[1,2-b]pyridazin-2-yl)isonicotinamide]",0.306,3.21
"O=C(Nc1cn2nc(-c3c(-c4ccc(F)cc4)ncn3CCN3CCOCC3)ccc2n1)c1ccnc(F)c1 [Compound 161, 2-fluoro-N-(6-(4-(4-fluorophenyl)-1-(2-morpholinoethyl)-1H-imidazol-5-yl)imidazo[1,2-b]pyridazin-2-yl) isonicotinamide]",0.415,2.5
"O=C(Nc1cn2nc(-c3c(-c4ccc(F)cc4)ncn3CCN3CCOCC3)ccc2n1)c1cc(F)nc(F)c1 [Compound 162, 2,6-difluoro-N-(6-(4-(4-fluorophenyl)-1-(2-morpholinoethyl)-1H-imidazol-5-yl)imidazo[1,2-b]pyridazin-2-yl)isonicotinamide]",0.311,2.42
"Cc1nc(-c2cccnc2)sc1C(=O)Nc1cn2nc(-c3c(-c4ccc(F)cc4)ncn3CCN3CCOCC3)ccc2n1 [Compound 163, N-(6-(4-(4-fluorophenyl)-1-(2-morpholinoethyl)-1H-imidazol-5-yl)imidazo [1,2-b]pyridazin-2-yl)-4-methyl-2-(pyridin-3-yl) thiazole-5-carboxamide]",0.242,0.936
"N#CCC(=O)Nc1cn2nc(-c3c(-c4ccc(F)cc4)ncn3CCN3CCOCC3)ccc2n1 [Compound 164, 2-cyano-N-(6-(4-(4-fluorophenyl)-1-(2-morpholinoethyl)-1H-imidazol-5-yl)imidazo [1,2-b]pyridazin-2-yl) acetamide]",4.37,67.3
"O=C(CO)Nc1cn2nc(-c3c(-c4ccc(F)cc4)ncn3CCN3CCOCC3)ccc2n1 [Compound 165, N-(6-(4-(4-fluorophenyl)-1-(2-morpholinoethyl)-1H-imidazol-5-yl)imidazo [1,2-b]pyridazin-2-yl)-2-hydroxyacetamide]",4.64,53.6
"O=C(Nc1cn2nc(-c3c(-c4ccc(F)cc4)ncn3CCN3CCOCC3)ccc2n1)c1ccnc2ccccc12 [Compound 166, N-(6-(4-(4-fluorophenyl)-1-(2-morpholinoethyl)-1H-imidazol-5-yl)imidazo[1,2-b]pyridazin-2-yl)quinoline-4-carboxamide]",0.192,1.3
"O=C(Nc1cn2nc(-c3c(-c4ccc(F)cc4)ncn3CCN3CCOCC3)ccc2n1)c1cccc(-c2cccnc2)c1 [Compound 167, N-(6-(4-(4-fluorophenyl)-1-(2-morpholinoethyl)-1H-imidazol-5-yl)imidazo[1,2-b]pyridazin-2-yl)-3-(pyridin-3-yl)benzamide]",0.104,0.687
"O=C(Nc1cn2nc(-c3c(-c4ccc(F)cc4)ncn3CCN3CCOCC3)ccc2n1)c1ccnc(N2CCOCC2)c1 [Compound 168, N-(6-(4-(4-fluorophenyl)-1-(2-morpholinoethyl)-1H-imidazol-5-yl)imidazo[1,2-b]pyridazin-2-yl)-2-morpholinoisonicotinamide]",0.11,1.73
"O=C(Nc1cn2nc(-c3c(-c4ccc(F)cc4)nc4ccccn34)ccc2n1)c1cc(F)nc(F)c1 [Compound 169, 2,6-difluoro-N-(6-(2-(4-fluorophenyl)imidazo[1,2-a]pyridin-3-yl)imidazo[1,2-b]pyridazin-2-yl)isonicotinamide]",0.492,5.24
"O=C(Nc1cn2nc(-c3c(-c4ccc(F)cc4)nc4ccccn34)ccc2n1)c1ccc(-c2cc[nH]n2)cc1 [Compound 170, N-(6-(2-(4-fluorophenyl)imidazo[1,2-a]pyridin-3-yl)imidazo[1,2-b]pyridazin-2-yl)-4-(1H-pyrazol-3-yl) benzamide]",0.743,8.43
"Cn1ccc(-c2cccc(C(=O)Nc3cn4nc(-c5c(-c6ccc(F)cc6)nc6ccccn56)ccc4n3)c2)n1 [Compound 171, N-(6-(2-(4-fluorophenyl)imidazo[1,2-a]pyridin-3-yl)imidazo[1,2-b]pyridazin-2-yl)-3-(1-methyl-1H-pyrazol-3-yl)benzamide]",1.98,7.68
"O=C(Nc1cn2nc(-c3c(-c4ccc(F)cc4)nc4ccccn34)ccc2n1)c1cnc2ccccc2n1 [Compound 175, N-(6-(2-(4-fluorophenyl)imidazo[1,2-a]pyridin-3-yl)imidazo[1,2-b]pyridazin-2-yl)-2-quinoxalinecarboxamide]",3.93,19.3
"O=C(Nc1cn2nc(-c3c(-c4ccc(F)cc4)nc4ccccn34)ccc2n1)c1csnn1 [Compound 176, N-(6-(2-(4-fluorophenyl)imidazo[1,2-a]pyridin-3-yl)imidazo[1,2-b]pyridazin-2-yl)-1,2,3-thiadiazole-4-carboxamide]",5.68,47.4
"O=C(Nc1cn2nc(-c3c(-c4ccc(F)cc4)nc4ccccn34)ccc2n1)c1cc[nH]n1 [Compound 177, N-(6-(2-(4-fluorophenyl)imidazo[1,2-a]pyridin-3-yl)imidazo[1,2-b]pyridazin-2-yl)-1H-pyrazole-3-carboxamide]",6.8,24.2
"Cc1nnsc1C(=O)Nc1cn2nc(-c3c(-c4ccc(F)cc4)nc4ccccn34)ccc2n1 [Compound 178, N-(6-(2-(4-fluorophenyl)imidazo[1,2-a]pyridin-3-yl)imidazo[1,2-b]pyridazin-2-yl)-4-methyl-1,2,3-thiadiazole-5-carboxamide]",200,1520
"Cc1cc(C(=O)Nc2cn3nc(-c4c(-c5ccc(F)cc5)nc5ccccn45)ccc3n2)on1 [Compound 179, N-(6-(2-(4-fluorophenyl)imidazo[1,2-a]pyridin-3-yl)imidazo[1,2-b]pyridazin-2-yl)-3-methyl-5-isoxazolecarboxamide]",0.206,2.93
